Assay results reported in US20220323406A1, “METHODS AND COMPOSITIONS FOR DIFFERENTIATING STEM CELLS” (Massachusetts Institute of Technology, priority 2019, published 2022).

Legend:
ENR+CD organoids = assay: Primary screen: ATP (CellTiter-Glo 3D, CTG) cell number/viability, 2.5-D 384-well ENR+CD organoids; settings: primary screen; for Z.CTG: standard z score;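 as to all read-outs here: compounds given at plating and again on day 3 over a 6-day differentiation from ENR+CV stem-cell-enriched precursors, ATP measured on day 6, plate median as control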
[1] = test system: ENR+CD organoids (ISC to Paneth cell differentiation); assay: Primary screen: CCh-stimulated lysozyme secretion LYZ.S, 2.5-D 384-well ENR+CD organoid differentiation; format: cell-based, mouse; settings: primary screen
Text: (§1) High-throughput screening.

[2] = test system: ENR+CD organoids (ISC to Paneth cell differentiation); assay: Primary screen: basal (non-stimulated) lysozyme secretion LYZ.NS, 2.5-D 384-well ENR+CD organoid differentiation; format: cell-based, mouse
Text: as §1

[3] = dose 0.08 uM, FC relative to plate median
[4] = dose 0.40 uM, FC relative to plate median
[5] = dose 2.00 uM, FC relative to plate median
[6] = dose 10.00 uM, FC relative to plate median
[7] = primary screen, dose 0.08 uM, standard z score
[8] = primary screen, dose 0.40 uM, standard z score
[9] = primary screen, dose 2.00 uM, standard z score
[10] = primary screen, dose 10.00 uM, standard z score
[11] = dose 0.08 uM, FC vs plate median
[12] = dose 0.40 uM, FC vs plate median
[13] = dose 2.00 uM, FC vs plate median
[14] = dose 10.00 uM, FC vs plate median

Cc1cc(C)nc(NS(=O)(=O)c2ccc(NC(=S)NC(=O)COc3ccc(Br)cc3Cl)cc2)n1 [ZCL278]
Dose.FC.CTG (ENR+CD organoids; dose 0.08 uM): −0.964 log2 fold change | Z.CTG (standard z score) (ENR+CD organoids; dose 0.08 uM): −2.303 | Dose.FC.CTG (ENR+CD organoids; dose 0.40 uM): 0.018 log2 fold change | Z.CTG (standard z score) (ENR+CD organoids; dose 0.40 uM): 0.044 | Dose.FC.CTG (ENR+CD organoids; dose 2.00 uM): −0.228 log2 fold change | Z.CTG (standard z score) (ENR+CD organoids; dose 2.00 uM): −0.545 | Dose.FC.CTG (ENR+CD organoids; dose 10.00 uM): −0.104 log2 fold change | Z.CTG (standard z score) (ENR+CD organoids; dose 10.00 uM): −0.247 | Dose.FC.LYZ.S ([1]; dose 0.08 uM): −0.107 log2 fold change | Dose.FC.LYZ.S ([1]; dose 0.40 uM): 0.077 log2 fold change | Dose.FC.LYZ.S ([1]; dose 2.00 uM): −0.079 log2 fold change | Dose.FC.LYZ.S ([1]; dose 10.00 uM): −0.080 log2 fold change | Dose.FC.LYZ.NS ([2]; primary screen, dose 0.08 uM): −0.084 log2 fold change | Z.LYZ.NS (standard z score) ([2]; primary screen, dose 0.08 uM): −0.729 | Dose.FC.LYZ.NS ([2]; primary screen, dose 0.40 uM): −0.037 log2 fold change | Z.LYZ.NS (standard z score) ([2]; primary screen, dose 0.40 uM): −0.325 | Dose.FC.LYZ.NS ([2]; primary screen, dose 2.00 uM): 0.025 log2 fold change | Z.LYZ.NS (standard z score) ([2]; primary screen, dose 2.00 uM): 0.218 | Dose.FC.LYZ.NS ([2]; primary screen, dose 10.00 uM): 0.015 log2 fold change | Z.LYZ.NS (standard z score) ([2]; primary screen, dose 10.00 uM): 0.130

Cc1ccc(S(=O)(=O)NC(=O)NN2CC3CCCC3C2)cc1 (stereo not drawn) [Gliclazide]
Dose.FC.CTG (ENR+CD organoids; dose 0.08 uM): 0.162 log2 fold change | Dose.FC.CTG (ENR+CD organoids; dose 0.40 uM): 0.054 log2 fold change | Dose.FC.CTG (ENR+CD organoids; dose 2.00 uM): 0.008 log2 fold change | Dose.FC.CTG (log2 fold change) (ENR+CD organoids; dose 10.00 uM): −0.092 | Dose.FC.LYZ.S ([1]; dose 0.08 uM): 0.058 log2 fold change | Dose.FC.LYZ.S ([1]; dose 0.40 uM): 0.086 log2 fold change | Dose.FC.LYZ.S ([1]; dose 2.00 uM): −0.017 log2 fold change | Dose.FC.LYZ.S (log2 fold change) ([1]; dose 10.00 uM): −0.060 | Dose.FC.LYZ.NS ([2]; primary screen, dose 0.08 uM): 0.036 log2 fold change | Dose.FC.LYZ.NS ([2]; primary screen, dose 0.40 uM): 0.032 log2 fold change | Dose.FC.LYZ.NS ([2]; primary screen, dose 2.00 uM): 0.104 log2 fold change | Dose.FC.LYZ.NS (log2 fold change) ([2]; primary screen, dose 10.00 uM): −0.035 | Z.LYZ.NS (standard z score) ([2]; primary screen, dose 10.00 uM): −0.303 | Z.LYZ.NS ([2]; primary screen, standard z score, dose 0.08 uM): 0.313 | Z.LYZ.NS ([2]; primary screen, standard z score, dose 0.40 uM): 0.278 | Z.LYZ.NS ([2]; primary screen, standard z score, dose 2.00 uM): 0.909

Cc1cn([C@H]2C=C[C@@H](CO)O2)c(=O)[nH]c1=O [Stavudine (d4T)]
Dose.FC.CTG (ENR+CD organoids; [3]): 0.095 log2 fold change | Z.CTG (ENR+CD organoids; dose 0.08 uM): 0.226 | Dose.FC.CTG (ENR+CD organoids; [4]): 0.147 log2 fold change | Z.CTG (ENR+CD organoids; dose 0.40 uM): 0.351 | Dose.FC.CTG (ENR+CD organoids; [5]): 0.075 log2 fold change | Z.CTG (ENR+CD organoids; dose 2.00 uM): 0.179 | Dose.FC.CTG (ENR+CD organoids; [6]): −0.075 log2 fold change | Z.CTG (ENR+CD organoids; dose 10.00 uM): −0.179 | Dose.FC.LYZ.S [1, 3]: 0.134 log2 fold change | Dose.FC.LYZ.S [1, 4]: 0.001 log2 fold change | Dose.FC.LYZ.S [1, 5]: −0.003 log2 fold change | Dose.FC.LYZ.S [1, 6]: −0.120 log2 fold change | Dose.FC.LYZ.NS ([2]; primary screen, dose 0.08 uM, FC relative to plate median): 0.071 log2 fold change | Z.LYZ.NS [2, 7]: 0.620 | Dose.FC.LYZ.NS ([2]; primary screen, dose 0.40 uM, FC relative to plate median): 0.003 log2 fold change | Z.LYZ.NS [2, 8]: 0.027 | Dose.FC.LYZ.NS ([2]; primary screen, dose 2.00 uM, FC relative to plate median): 0.009 log2 fold change | Z.LYZ.NS [2, 9]: 0.074 | Dose.FC.LYZ.NS ([2]; primary screen, dose 10.00 uM, FC relative to plate median): −0.095 log2 fold change | Z.LYZ.NS [2, 10]: −0.828

Cc1cnc(NC(=O)Nc2cc(Br)c(C)cc2OC[C@@H]2CNCCO2)cn1 [LY2603618]
Dose.FC.CTG (log2 fold change) (ENR+CD organoids; dose 0.08 uM): −0.004 | Z.CTG (standard z score) (ENR+CD organoids; dose 0.08 uM): −0.010 | Dose.FC.CTG (log2 fold change) (ENR+CD organoids; dose 0.40 uM): −0.238 | Z.CTG (standard z score) (ENR+CD organoids; dose 0.40 uM): −0.567 | Dose.FC.CTG (log2 fold change) (ENR+CD organoids; dose 2.00 uM): −0.396 | Z.CTG (standard z score) (ENR+CD organoids; dose 2.00 uM): −0.946 | Dose.FC.CTG (log2 fold change) (ENR+CD organoids; dose 10.00 uM): −0.983 | Z.CTG (standard z score) (ENR+CD organoids; dose 10.00 uM): −2.347 | Dose.FC.LYZ.S (log2 fold change) ([1]; dose 0.08 uM): 0.009 | Dose.FC.LYZ.S (log2 fold change) ([1]; dose 0.40 uM): −0.147 | Dose.FC.LYZ.S (log2 fold change) ([1]; dose 2.00 uM): −0.269 | Dose.FC.LYZ.S (log2 fold change) ([1]; dose 10.00 uM): −0.356 | Dose.FC.LYZ.NS (log2 fold change) ([2]; primary screen, dose 0.08 uM): −0.005 | Z.LYZ.NS (standard z score) ([2]; primary screen, dose 0.08 uM): −0.046 | Dose.FC.LYZ.NS (log2 fold change) ([2]; primary screen, dose 0.40 uM): −0.091 | Z.LYZ.NS (standard z score) ([2]; primary screen, dose 0.40 uM): −0.791 | Dose.FC.LYZ.NS (log2 fold change) ([2]; primary screen, dose 2.00 uM): −0.193 | Z.LYZ.NS (standard z score) ([2]; primary screen, dose 2.00 uM): −1.685 | Dose.FC.LYZ.NS (log2 fold change) ([2]; primary screen, dose 10.00 uM): −0.233 | Z.LYZ.NS (standard z score) ([2]; primary screen, dose 10.00 uM): −2.026

CCC(CC)(NC(=O)C(C)C)C(=O)N[C@@H](CCCN=C(N)N)C(=O)NC1(C(=O)NC(c2ccc(F)cc2)c2ccc(F)cc2)CCCC1 [MM-102]
Z.CTG (ENR+CD organoids; dose 0.08 uM): −0.489 | Z.CTG (ENR+CD organoids; dose 0.40 uM): −0.315 | Z.CTG (ENR+CD organoids; dose 2.00 uM): −0.557 | Z.CTG (ENR+CD organoids; dose 10.00 uM): −0.964 | Dose.FC.CTG (ENR+CD organoids; [11]): −0.205 log2 fold change | Dose.FC.CTG (ENR+CD organoids; [12]): −0.132 log2 fold change | Dose.FC.CTG (ENR+CD organoids; [13]): −0.233 log2 fold change | Dose.FC.CTG (ENR+CD organoids; [14]): −0.403 log2 fold change | Dose.FC.LYZ.S [1, 11]: −0.027 log2 fold change | Dose.FC.LYZ.S [1, 12]: −0.001 log2 fold change | Dose.FC.LYZ.S [1, 13]: −0.035 log2 fold change | Dose.FC.LYZ.S [1, 14]: −0.194 log2 fold change | Z.LYZ.NS [2, 7]: −0.220 | Z.LYZ.NS [2, 8]: −0.090 | Z.LYZ.NS [2, 9]: 0.230 | Z.LYZ.NS [2, 10]: −1.424 | Dose.FC.LYZ.NS ([2]; primary screen; dose 0.08 uM; FC vs plate median): −0.025 log2 fold change | Dose.FC.LYZ.NS ([2]; primary screen; dose 0.40 uM; FC vs plate median): −0.010 log2 fold change | Dose.FC.LYZ.NS ([2]; primary screen; dose 2.00 uM; FC vs plate median): 0.026 log2 fold change | Dose.FC.LYZ.NS ([2]; primary screen; dose 10.00 uM; FC vs plate median): −0.164 log2 fold change
